Measurements: patent US9155714B2, “Compositions comprising an aromatic alcohol and a TRPV-1 antagonist, and uses thereof” (JOHNSON & JOHNSON CONSUMER INC., priority 2013, dated 2015)
Several values for one entry are separate records, joined by “and”; a condition that tells them apart may be missing. Equal entries are not always repeated.

Assays:
Type in all cases: cell-based
[1] = molecular target: T1, human vanilloid receptor-1 (TRPV-1) (Homo sapiens, UniProt Q8NER1); assay: Calcium Flux Test, inhibition of phenoxyethanol-induced calcium flux; conditions: for reducing phenoxyethanol-induced calcium flux (result in words): TRPV-1-expressing HEK293 cells
T1 construct: host or cells: HEK293
Experimental: (§1) The Calcium Flux Test is performed in the following manner: Recombinant HEK293 cells expressing human vanilloid receptor-1 (TRPV-1; accession number AF196175, EMD Millipore, Billerica, Mass.) are grown in D-MEM/F-12 media (Life Technologies, Grand Island, N.Y.) supplemented with 10% fetal bovine serum, 1% non essential amino acids and 400 μg/mL Geneticin (Gibco, Life Technologies). Cells are plated at a concentration of 15,000 cells per well on poly-D-lysine-coated 384 well plates and incubated overnight at 5% CO2 and 37° C. After incubation, culture media is removed from the wells and replaced with 50 μL per well of Fluo-8 No Wash dye solution (#36315, AAT Bioquest, Sunnyvale, Calif.). The Fluo-8 dye solution is prepared by mixing 20 uL of Fluo-8 NW with 30 mL of 0.33× Pluronic® F127 Plus (BASF of Ludwigshafen, Germany) in assay buffer (1×HBSS+2% of HEPES). Fluo-8 dye is incubated for 30 minutes at room temperature. Intracellular calcium (Ca^2+) flux is monitored upon exposure to aromatic alcohol in DMSO vehicle by measuring fluorescence intensity at Ex/Em 490/525 on a Functional Drug Screening System (FDSS; Hamamatsu, […]). Measurements are taken every second for a period of 4 minutes. […] Statistical differences are obtained using One Way ANOVA with Tukey Post-hoc test; statistical significance is defined as P≦0.05.
(§2) The Maximum RFU obtained with a given concentration of aromatic alcohol is compared with the Maximum RFU obtained using the same concentration of aromatic alcohol but pretreated with the TRPV-1 antagonist for 5 minutes after dye incubation. Percent inhibition achieved with the TRPV-1 antagonist is calculated as: 100*((Maximum RFU of aromatic alcohol−Maximum RFU of aromatic alcohol pretreated with TRPV-1 antagonist)/Maximum RFU of aromatic alcohol).
(§3) Capsazepine and AMG9810 were tested for activity as TRPV-1 antagonists using the Calcium Flux Test using two different concentrations of phenoxyethanol in DMSO. They were also tested using the Calcium Flux Test in which phenoxyethanol was replaced with capsaicin. […]

[2] = molecular target: T1, human vanilloid receptor-1 (TRPV-1); assay: Calcium Flux Test, phenoxyethanol replaced with capsaicin (capsaicin-induced calcium flux); conditions: capsaicin 300 nM
Experimental: as §1, §2, §3

[3] = molecular target: T1, human vanilloid receptor-1 (TRPV-1); assay: Calcium Flux Test, activity as TRPV-1 agonist
Experimental: as §1
(§4) Phenoxyethanol was tested at a series of concentrations in DMSO for activity as a TRPV-1 agonist according to the Calcium Flux Test described above. Capsaicin was used as a positive control.
(§5) Maximum RFU values for treatment with phenoxyethanol or capsaisin were compared to the Maximum RFU for a DMSO vehicle alone. Concentrations of phenoxyethanol and capsaicin are reported in milimolar (mM) and nanomolar (nM), respectively.
(§6) Benzyl alcohol and sodium bicarbonate were tested using the Calcium Flux Test.
(§7) Benzyl alcohol and phenethyl alcohol were tested at a series of concentrations in DMSO for activity as a TRPV-1 agonist as described in Example 1. Concentrations of benzyl alcohol and phenethyl alcohol are reported in units of % w/v.

[4] = molecular target: T1, human vanilloid receptor-1 (TRPV-1); assay: Calcium Flux Test, activity as TRPV-1 agonist; set-up: key: **: Statistically significant; n/s: Not statistically significant
Experimental: as §1, §4, §5, §6, §7

[5] = compound 25 μM, phenoxyethanol 2 mM
[6] = compound 25 μM, phenoxyethanol 3 mM
[7] = compound 100 μM, phenoxyethanol 2 mM
[8] = compound 100 μM, phenoxyethanol 3 mM

T1 sequence (Q8NER1 whole entry): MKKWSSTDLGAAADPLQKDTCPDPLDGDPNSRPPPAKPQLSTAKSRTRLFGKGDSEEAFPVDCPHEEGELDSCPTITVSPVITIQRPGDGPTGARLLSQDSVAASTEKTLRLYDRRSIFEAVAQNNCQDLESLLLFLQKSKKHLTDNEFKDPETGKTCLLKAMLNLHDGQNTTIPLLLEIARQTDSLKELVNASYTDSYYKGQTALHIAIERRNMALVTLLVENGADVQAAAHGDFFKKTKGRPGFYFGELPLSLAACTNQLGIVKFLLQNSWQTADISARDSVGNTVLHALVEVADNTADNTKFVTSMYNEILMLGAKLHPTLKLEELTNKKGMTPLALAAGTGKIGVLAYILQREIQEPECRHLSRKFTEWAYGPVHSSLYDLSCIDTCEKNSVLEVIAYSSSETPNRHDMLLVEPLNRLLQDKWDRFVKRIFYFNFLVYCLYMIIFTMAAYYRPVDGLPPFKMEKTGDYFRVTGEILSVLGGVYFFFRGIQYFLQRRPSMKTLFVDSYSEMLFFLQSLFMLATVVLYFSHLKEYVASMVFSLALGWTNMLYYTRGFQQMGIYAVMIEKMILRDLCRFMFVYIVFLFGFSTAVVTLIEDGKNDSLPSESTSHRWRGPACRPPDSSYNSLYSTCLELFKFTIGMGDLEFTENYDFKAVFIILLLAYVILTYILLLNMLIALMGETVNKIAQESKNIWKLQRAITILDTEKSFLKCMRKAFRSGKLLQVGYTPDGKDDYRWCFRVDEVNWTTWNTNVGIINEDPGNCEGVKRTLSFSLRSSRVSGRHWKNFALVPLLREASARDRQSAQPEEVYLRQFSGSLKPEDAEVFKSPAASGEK

SMILES: C[C@]12CCC(=O)C=C1CC[C@@H]1[C@@H]2[C@@H](O)C[C@@]2(C)[C@H]1CC[C@]2(O)C(=O)CO [Hydrocortisone, hydrocortisone]
- reducing phenoxyethanol-induced calcium flux (result in words) [1]: none of hydrocortisone, diphenhydramine or lidocaine were effective
- Maximum RFU (mean ± SD) [1, 5]: 171.65 ± 83.27 RFU
- Maximum RFU (mean ± SD) [1, 6]: 309.90 ± 40.00 RFU
- Maximum RFU (mean ± SD) [1, 7]: 160.66 ± 30.14 RFU
- Maximum RFU (mean ± SD) [1, 8]: 225.19 ± 38.09 RFU
- Maximum RFU (mean ± SD) ([2]; compound 25 μM): 950.97 ± 49.52 RFU
- Maximum RFU (mean ± SD) ([2]; compound 100 μM): 963.83 ± 65.21 RFU

SMILES: CCN(CC)CC(=O)Nc1c(C)cccc1C [Lidocaine, lidocaine]
- reducing phenoxyethanol-induced calcium flux (result in words) [1]: none of hydrocortisone, diphenhydramine or lidocaine were effective
- Maximum RFU (mean ± SD) [1, 5]: 124.96 ± 22.24 RFU
- Maximum RFU (mean ± SD) [1, 6]: 197.45 ± 41.14 RFU
- Maximum RFU (mean ± SD) [1, 7]: 116.25 ± 25.92 RFU
- Maximum RFU (mean ± SD) [1, 8]: 205.92 ± 16.97 RFU

SMILES: OCCc1ccccc1 [Phenethyl Alcohol, phenethyl alcohol]
- intracellular calcium flux in TRPV-1-transfected HEK cells (result in words) [3]: dose dependent increases
- Maximum RFU ([3]; phenethyl alcohol 0.000002 % w/v alone (no antagonist)): 12.8 ± 1.35 RFU and 6.43 RFU and 12.28 ± 3.52 RFU
- Maximum RFU ([3]; phenethyl alcohol 0.013 % w/v alone (no antagonist)): 185.92 ± 28.6 RFU and 123.10 RFU and 200.02 ± 6.15 RFU
- Maximum RFU ([3]; phenethyl alcohol 0.04 % w/v alone (no antagonist)): 548.5 ± 37.22 RFU and 441.18 RFU and 470.23 ± 7.11 RFU
- Maximum RFU ([3]; phenethyl alcohol 0.12 % w/v alone (no antagonist)): 755.2 ± 12.89 RFU and 605.31 RFU and 580.44 ± 3.06 RFU

SMILES: OCCOc1ccccc1 [Phenoxyethanol, 2-phenoxy-1-ethanol]
- increase in Maximum RFU values compared to the vehicle alone [3]: thirty to forty-fold
- intracellular calcium flux in TRPV-1-transfected HEK cells (result in words) [3]: dose dependent increases
- Maximum RFU (mean ± SD) ([3]; phenoxyethanol 0.5 mM alone): 96.96 ± 61.20 RFU
- Maximum RFU (mean ± SD) ([3]; phenoxyethanol 0.75 mM alone): 124.81 ± 37.58 RFU
- Maximum RFU (mean ± SD) ([3]; phenoxyethanol 1 mM alone): 200.28 ± 76.93 RFU
- Maximum RFU (mean ± SD) ([3]; phenoxyethanol 1.5 mM alone): 304.41 ± 70.10 RFU
- Maximum RFU (mean ± SD) ([3]; phenoxyethanol 2.5 mM alone): 363.73 ± 44.11 RFU
- Maximum RFU (mean ± SD) ([3]; phenoxyethanol 3 mM alone): 401.68 ± 26.58 RFU and 441.76 ± 36.68 RFU and 224.26 ± 42.60 RFU and 257.93 RFU
- Maximum RFU (mean ± SD) ([3]; phenoxyethanol 3.5 mM alone): 404.21 ± 42.32 RFU
- Maximum RFU (mean ± SD) ([3]; phenoxyethanol 4 mM alone): 453.25 ± 34.18 RFU
- P < 0.05 Compared to Vehicle ([4]; phenoxyethanol 0.5 mM): n/s
- P < 0.05 Compared to Vehicle ([4]; phenoxyethanol 0.75 mM): n/s
- P < 0.05 Compared to Vehicle ([4]; phenoxyethanol 1 mM): **
- P < 0.05 Compared to Vehicle ([4]; phenoxyethanol 1.5 mM): **
- P < 0.05 Compared to Vehicle ([4]; phenoxyethanol 2 mM): **
- P < 0.05 Compared to Vehicle ([4]; phenoxyethanol 2.5 mM): **
- P < 0.05 Compared to Vehicle ([4]; phenoxyethanol 3 mM): **
- P < 0.05 Compared to Vehicle ([4]; phenoxyethanol 3.5 mM): **
- P < 0.05 Compared to Vehicle ([4]; phenoxyethanol 4 mM): **
